Molecules are shown by their SMILES. In brackets after ≈: the same amount, converted by molar mass.

One assay concerns C. krusei ATCC 6258. The experiment in a line: Anti-Fungal Activity Assay (broth microtiter MIC), C. krusei. It is filed as cell-based, Candida krusei. The conditions noted are these: Pichia kudriavzevii, ATCC6258, 48 h, 3 replicates; MIC recorded at 48 h; read-out: MIC C. krusei ATCC 6258. Put shortly:
(§1)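 Candida strains were grown from frozen stock on Sabouraud dextrose agar overnight at 35° C, then suspended directly in RPMI 1640+MOPS and quantified against standard curves. Broth microdilution MIC plates followed CLSI M27-A3; MICs were read visually against growth control at 48 h, with a 24 h read added for soraphen.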

The test system of assay [1] is C. parapsilosis ATCC 22019. Nature of the assay: Anti-Fungal Activity Assay (broth microtiter MIC), C. parapsilosis. It is filed as cell-based, Candida parapsilosis. The conditions noted are these: Lodderomyces parapsilosis, ATCC22019, 48 h, 3 replicates; MIC recorded at 48 h; read-out: MIC C. parapsilosis ATCC 22019. Put shortly:
as §1

For the next assay, the system named is C. albicans ATCC 90028. Nature of the assay: Anti-Fungal Activity Assay (broth microtiter MIC), C. albicans. It is filed as cell-based, Candida albicans. The conditions noted are these: Candida albicans, ATCC90028, 48 h, 3 replicates; MIC recorded at 48 h; read-out: MIC C. albicans ATCC 90028. Put shortly:
as §1

A further assay has as its target Human ACC2 (Homo sapiens, UniProt O00763). Nature of the assay: In vitro ACC2 inhibition assay (ADP-Glo), human ACC2. The following applies: 5 nM ACC2, 20 μM ATP, 20 μM acetyl-CoA. The format is biochemical.
A further assay has as its target Fungal ACC2 (UniProt Q00955). The following applies: read-out: Fungal ACC2 (IC50, in vitro ACC2 inhibition).

Fungal ACC2, sequence (Q00955 whole entry): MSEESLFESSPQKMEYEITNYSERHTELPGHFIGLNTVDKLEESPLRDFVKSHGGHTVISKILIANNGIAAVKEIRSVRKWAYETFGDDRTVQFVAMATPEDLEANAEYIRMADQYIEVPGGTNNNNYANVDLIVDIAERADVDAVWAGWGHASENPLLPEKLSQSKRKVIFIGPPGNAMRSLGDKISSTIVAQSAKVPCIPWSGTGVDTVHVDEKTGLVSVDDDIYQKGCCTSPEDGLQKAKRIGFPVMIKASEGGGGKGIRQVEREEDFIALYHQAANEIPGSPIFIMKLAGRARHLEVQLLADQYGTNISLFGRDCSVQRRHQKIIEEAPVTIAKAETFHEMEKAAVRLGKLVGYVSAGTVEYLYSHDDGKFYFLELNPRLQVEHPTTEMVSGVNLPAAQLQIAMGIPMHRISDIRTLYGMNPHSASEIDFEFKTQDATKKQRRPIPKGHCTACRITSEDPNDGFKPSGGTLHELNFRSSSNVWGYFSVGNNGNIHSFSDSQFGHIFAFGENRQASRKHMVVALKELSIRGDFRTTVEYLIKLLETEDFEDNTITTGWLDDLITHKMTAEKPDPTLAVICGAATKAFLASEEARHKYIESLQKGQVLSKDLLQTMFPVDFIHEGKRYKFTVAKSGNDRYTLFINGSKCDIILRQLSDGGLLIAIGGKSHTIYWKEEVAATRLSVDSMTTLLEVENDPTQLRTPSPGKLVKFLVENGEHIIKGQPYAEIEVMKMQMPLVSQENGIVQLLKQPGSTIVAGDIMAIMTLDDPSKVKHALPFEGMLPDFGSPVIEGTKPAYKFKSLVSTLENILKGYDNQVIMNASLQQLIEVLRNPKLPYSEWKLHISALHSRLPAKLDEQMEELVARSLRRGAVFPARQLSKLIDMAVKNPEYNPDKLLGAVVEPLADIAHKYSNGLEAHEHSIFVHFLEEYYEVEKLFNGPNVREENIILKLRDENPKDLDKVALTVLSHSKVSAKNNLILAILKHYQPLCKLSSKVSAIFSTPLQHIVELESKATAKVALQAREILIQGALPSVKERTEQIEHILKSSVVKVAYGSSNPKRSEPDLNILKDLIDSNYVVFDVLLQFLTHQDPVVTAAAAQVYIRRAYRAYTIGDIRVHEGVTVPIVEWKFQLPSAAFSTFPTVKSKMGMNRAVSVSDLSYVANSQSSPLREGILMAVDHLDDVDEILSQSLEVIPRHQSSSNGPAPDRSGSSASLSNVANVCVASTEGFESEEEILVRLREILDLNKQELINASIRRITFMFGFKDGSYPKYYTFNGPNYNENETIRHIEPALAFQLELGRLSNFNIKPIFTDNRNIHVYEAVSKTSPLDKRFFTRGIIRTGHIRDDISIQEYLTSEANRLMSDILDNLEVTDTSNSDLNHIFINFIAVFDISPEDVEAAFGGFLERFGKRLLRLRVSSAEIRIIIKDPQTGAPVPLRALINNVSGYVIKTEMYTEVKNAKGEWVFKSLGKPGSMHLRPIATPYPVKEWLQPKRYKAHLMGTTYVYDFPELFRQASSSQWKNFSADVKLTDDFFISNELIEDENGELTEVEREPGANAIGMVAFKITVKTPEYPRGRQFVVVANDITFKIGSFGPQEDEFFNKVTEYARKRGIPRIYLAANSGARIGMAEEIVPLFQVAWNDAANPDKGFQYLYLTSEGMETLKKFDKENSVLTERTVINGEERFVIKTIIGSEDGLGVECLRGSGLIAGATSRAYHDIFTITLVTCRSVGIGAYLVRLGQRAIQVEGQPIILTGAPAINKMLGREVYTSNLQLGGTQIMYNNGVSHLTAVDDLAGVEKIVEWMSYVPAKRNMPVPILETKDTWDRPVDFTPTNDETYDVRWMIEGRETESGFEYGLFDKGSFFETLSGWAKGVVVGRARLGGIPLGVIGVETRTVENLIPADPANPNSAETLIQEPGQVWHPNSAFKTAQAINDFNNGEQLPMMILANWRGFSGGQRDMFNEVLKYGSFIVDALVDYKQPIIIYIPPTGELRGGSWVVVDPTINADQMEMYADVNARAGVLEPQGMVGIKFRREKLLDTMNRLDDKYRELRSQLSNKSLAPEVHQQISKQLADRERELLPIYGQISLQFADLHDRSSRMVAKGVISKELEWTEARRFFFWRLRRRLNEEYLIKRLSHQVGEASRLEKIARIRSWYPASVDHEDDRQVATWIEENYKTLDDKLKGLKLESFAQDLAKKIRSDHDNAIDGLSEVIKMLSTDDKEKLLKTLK
Human ACC2, sequence (O00763 whole entry): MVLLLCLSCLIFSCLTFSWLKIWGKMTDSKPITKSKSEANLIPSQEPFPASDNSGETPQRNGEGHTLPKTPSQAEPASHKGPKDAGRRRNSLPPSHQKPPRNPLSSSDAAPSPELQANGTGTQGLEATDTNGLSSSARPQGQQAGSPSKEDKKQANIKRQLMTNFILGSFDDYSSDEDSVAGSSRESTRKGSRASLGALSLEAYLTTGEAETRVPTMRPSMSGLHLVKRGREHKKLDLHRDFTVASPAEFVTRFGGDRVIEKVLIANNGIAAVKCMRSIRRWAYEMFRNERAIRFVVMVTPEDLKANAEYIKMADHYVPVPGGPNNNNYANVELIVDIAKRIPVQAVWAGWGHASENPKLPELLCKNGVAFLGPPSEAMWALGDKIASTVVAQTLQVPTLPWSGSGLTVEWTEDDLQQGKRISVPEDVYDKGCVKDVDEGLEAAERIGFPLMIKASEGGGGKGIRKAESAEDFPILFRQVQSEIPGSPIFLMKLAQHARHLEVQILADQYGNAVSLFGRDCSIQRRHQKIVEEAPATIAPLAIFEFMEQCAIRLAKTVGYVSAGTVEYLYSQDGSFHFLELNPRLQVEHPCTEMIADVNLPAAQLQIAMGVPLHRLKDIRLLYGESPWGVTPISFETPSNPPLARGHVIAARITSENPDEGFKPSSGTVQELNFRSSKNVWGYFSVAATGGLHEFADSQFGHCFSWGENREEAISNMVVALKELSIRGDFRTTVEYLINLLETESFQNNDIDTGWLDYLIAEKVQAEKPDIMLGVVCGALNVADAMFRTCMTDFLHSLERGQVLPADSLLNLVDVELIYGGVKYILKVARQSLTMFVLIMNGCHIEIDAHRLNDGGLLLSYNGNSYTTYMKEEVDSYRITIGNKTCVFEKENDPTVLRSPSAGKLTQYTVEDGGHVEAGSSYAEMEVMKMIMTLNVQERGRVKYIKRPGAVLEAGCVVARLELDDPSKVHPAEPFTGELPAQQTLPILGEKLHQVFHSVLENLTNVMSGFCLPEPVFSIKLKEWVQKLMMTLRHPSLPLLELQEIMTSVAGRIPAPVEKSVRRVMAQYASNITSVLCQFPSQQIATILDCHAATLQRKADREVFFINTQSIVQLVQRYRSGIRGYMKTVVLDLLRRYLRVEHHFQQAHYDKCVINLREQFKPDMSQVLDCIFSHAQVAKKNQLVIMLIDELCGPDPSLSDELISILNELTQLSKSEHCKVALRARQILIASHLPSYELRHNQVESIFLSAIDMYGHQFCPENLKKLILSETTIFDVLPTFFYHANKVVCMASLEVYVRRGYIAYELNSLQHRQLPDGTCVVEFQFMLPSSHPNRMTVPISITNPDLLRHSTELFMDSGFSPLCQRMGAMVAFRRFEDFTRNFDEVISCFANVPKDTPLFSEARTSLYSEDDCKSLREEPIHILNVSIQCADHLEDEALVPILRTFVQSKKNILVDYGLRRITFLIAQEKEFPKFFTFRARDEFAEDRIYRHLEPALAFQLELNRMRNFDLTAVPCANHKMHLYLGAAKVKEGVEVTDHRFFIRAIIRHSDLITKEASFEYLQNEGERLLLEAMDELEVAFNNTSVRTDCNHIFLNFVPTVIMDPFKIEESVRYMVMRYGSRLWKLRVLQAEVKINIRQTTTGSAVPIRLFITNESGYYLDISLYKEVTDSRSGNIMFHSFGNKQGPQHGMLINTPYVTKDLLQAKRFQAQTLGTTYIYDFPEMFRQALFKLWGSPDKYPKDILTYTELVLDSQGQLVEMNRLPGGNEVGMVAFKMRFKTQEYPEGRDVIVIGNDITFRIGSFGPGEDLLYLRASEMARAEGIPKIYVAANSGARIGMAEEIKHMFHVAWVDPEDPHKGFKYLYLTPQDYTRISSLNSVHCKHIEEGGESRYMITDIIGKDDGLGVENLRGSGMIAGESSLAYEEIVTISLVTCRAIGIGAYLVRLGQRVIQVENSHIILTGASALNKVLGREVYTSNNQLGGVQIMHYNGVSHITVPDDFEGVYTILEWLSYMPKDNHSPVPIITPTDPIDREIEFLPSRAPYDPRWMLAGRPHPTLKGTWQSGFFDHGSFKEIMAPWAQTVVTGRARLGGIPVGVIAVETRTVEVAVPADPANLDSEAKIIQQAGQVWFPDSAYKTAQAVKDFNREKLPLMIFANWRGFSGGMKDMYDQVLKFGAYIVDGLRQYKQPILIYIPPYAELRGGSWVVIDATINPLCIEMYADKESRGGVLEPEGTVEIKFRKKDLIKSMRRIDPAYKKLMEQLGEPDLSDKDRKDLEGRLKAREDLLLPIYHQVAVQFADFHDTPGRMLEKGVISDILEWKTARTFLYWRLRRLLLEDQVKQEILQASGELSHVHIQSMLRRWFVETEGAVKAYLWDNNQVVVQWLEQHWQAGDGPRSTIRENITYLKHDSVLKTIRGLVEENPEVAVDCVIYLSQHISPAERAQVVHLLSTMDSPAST

Take `COc1ccc(F)cc1[C@H](Cn1c(=O)n(C2CCNC2=O)c(=O)c2c(C)c(-n3nccn3)sc21)OCCO` (stereo partly drawn) [Compound I-5, 1-((R)-2-(5-fluoro-2-methoxyphenyl)-2-(2-hydroxyethoxy)ethyl)-5-methyl-3-(2-oxopyrrolidin-3-yl)-6-(2H-1,2,3-triazol-2-yl)thieno[2,3-d]pyrimidine-2,4(1H,3H)-dione]: the MIC (in the assay with C. krusei ATCC 6258; in assay [1]; in the assay on C. albicans ATCC 90028) was 2.1 to 4 µg/mL (≈ 3.86 to 7.35 µM) throughout. Further, the figures for the 50% inhibitory concentration (IC50) on Human ACC2 and on Fungal ACC2 were 2 to 10 nM and 0.7 to 2 nM, respectively.
On to `COc1ccc(F)cc1[C@H](Cn1c(=O)n([C@@H]2CCN(C)C2=O)c(=O)c2c(C)c(-n3nccn3)sc21)O[C@H]1C[C@@H](O)C1` [Compound I-183, 1-((R)-2-(5-fluoro-2-methoxyphenyl)-2-((1s, 3S)-3-hydroxycyclobutoxy)ethyl)-5-methyl-3-((R)-1-methyl-2-oxopyrrolidin-3-yl)-6-(2H-1,2,3-triazol-2-yl)thieno[2,3-d]pyrimidine-2,4(1H,3H)-dione], for which the values for the MIC (in the assay with C. krusei ATCC 6258; in assay [1]; with C. albicans ATCC 90028) were 0.25 to 1 µg/mL (≈ 0.428 to 1.71 µM), 1.1 to 2 µg/mL (≈ 1.88 to 3.42 µM) and 0.25 to 1 µg/mL (≈ 0.428 to 1.71 µM), respectively. The IC50 against Human ACC2 was 2 to 10 nM; on Fungal ACC2, 0.7 to 2 nM.
In the case of `COCCO[C@@H](Cn1c(=O)n([C@H]2CNC(=O)C2)c(=O)c2c(C)c(-n3nccn3)sc21)c1cc(F)ccc1OC` [Compound I-88, 1-((R)-2-(5-fluoro-2-methoxyphenyl)-2-(2-methoxy-ethoxy)ethyl)-5-methyl-3-((R)-5-oxopyrrolidin-3-yl)-6-(2H-1,2,3-triazol-2-yl)thieno[2,3-d]pyrimidine-2,4(1H,3H)-dione], the MIC (in the assay with C. krusei ATCC 6258; in assay [1]; in the assay with C. albicans ATCC 90028) was 2.1 to 4 µg/mL (≈ 3.76 to 7.16 µM) each time. Moreover, the IC50 against Human ACC2 lay in the range of 10 to 100 nM; at Fungal ACC2, 0.7 to 2 nM.
`COCCO[C@@H](Cn1c(=O)n([C@]2(C)CNC(=O)C2)c(=O)c2c(C)c(-n3nccn3)sc21)c1cc(F)ccc1OC` [Compound I-115, 1-((R)-2-(5-fluoro-2-methoxyphenyl)-2-(2-methoxy-ethoxy)ethyl)-5-methyl-3-((S)-3-methyl-5-oxopyrrolidin-3-yl)-6-(2H-1,2,3-triazol-2-yl)thieno[2,3-d]pyrimidine-24(1H,3H)-dione]: the MIC (in the assay on C. krusei ATCC 6258; in assay [1]; in the assay with C. albicans ATCC 90028) was 2.1 to 4 µg/mL (≈ 3.67 to 6.99 µM) in each case. Also, the IC50 lay in the range of 10 to 100 nM against Human ACC2 and 0.7 to 2 nM on Fungal ACC2.
As for `COc1ccc(F)cc1[C@H](Cn1c(=O)n([C@@H]2CCN(C)C2=O)c(=O)c2c(C)c(-n3cccn3)sc21)OCCC(=O)O` [Compound I-179, 3-((R)-1-(5-fluoro-2-methoxyphenyl)-2-(5-methyl-3-((R)-1-methyl-2-oxopyrrolidin-3-yl)-2,4-dioxo-6-(H-pyrazol-1-yl)-3,4-dihydrothieno[2,3-d]pyrimidin-1 (2H)-yl)ethoxy)propanoic acid], the MIC (in the assay with C. krusei ATCC 6258; in assay [1]; in the assay on C. albicans ATCC 90028) was 2.1 to 4 µg/mL (≈ 3.59 to 6.83 µM) in each case. For the same compound, the values for the IC50 against Human ACC2 and on Fungal ACC2 were 10 to 100 nM and 2 to 10 nM, respectively.
`COCCO[C@@H](Cn1c(=O)n(CCN2CCCNC2=O)c(=O)c2c(C)c(-n3nccn3)sc21)c1cc(F)ccc1OC` [Compound I-100, (R)-1-(2-(5-fluoro-2-methoxyphenyl)-2-(2-methoxy-ethoxy)ethyl)-5-methyl-3-(2-(2-oxotetrahydropyrimidin-1 (2H)-yl)ethyl)-6-(2H-1,2,3-triazol-2-yl)thieno[2,3-d]pyrimidine-2,4(1H,3H)-dione]: the MIC (in the assay with C. krusei ATCC 6258; in assay [1]; with C. albicans ATCC 90028) was 2.1 to 4 µg/mL (≈ 3.49 to 6.65 µM) in each case. Besides, the IC50 fell in the range of 10 to 100 nM on Human ACC2 and 2 to 10 nM on Fungal ACC2.
For the compound `COc1ccc(F)cc1[C@H](Cn1c(=O)n([C@@H]2CCCNC2=O)c(=O)c2c(C)c(-n3nccn3)sc21)O[C@H]1CC[C@@H](O)CC1` [Compound I-174, 1-((R)-2-(5-fluoro-2-methoxyphenyl)-2-(((1 s, 4S)-4-hydroxycyclohexyl)oxy)ethyl)-5-methyl-3-((R)-2-oxopiperidin-3-yl)-6-(2H-1,2,3-triazol-2-yl)thieno[2,3-d]pyrimidine-2,4(1H,3H)-dione], the MIC in the assay with C. krusei ATCC 6258 is 0.25 to 1 µg/mL (≈ 0.408 to 1.63 µM); in assay [1] it was 1.1 to 2 µg/mL (≈ 1.8 to 3.26 µM); with C. albicans ATCC 90028 it was 0.25 to 1 µg/mL (≈ 0.408 to 1.63 µM). For the same compound, the results for the IC50 at Human ACC2 and at Fungal ACC2 were 2 to 10 nM and 0.7 to 2 nM, respectively.
Consider `COc1ccc(F)cc1[C@H](Cn1c(=O)n([C@]2(C)CCCNC2=O)c(=O)c2c(C)c(-n3nccn3)sc21)OCCO` [Compound I-126, 1-((R)-2-(5-fluoro-2-methoxyphenyl)-2-(2-hydroxyethoxy)ethyl)-5-methyl-3-((R)-3-methyl-2-oxopiperidin-3-yl)-6-(2H, 1,2,3-triazol-2-yl)thieno[2,3-d]pyrimidine-2,4(1H,3H)-dione], for which the minimum inhibitory concentration (MIC) in the assay on C. krusei ATCC 6258 lay within 0.25 to 1 µg/mL (≈ 0.437 to 1.75 µM); in assay [1], 2.1 to 4 µg/mL (≈ 3.67 to 6.99 µM); in the assay on C. albicans ATCC 90028, 2.1 to 4 µg/mL (≈ 3.67 to 6.99 µM). The half-maximal inhibitory concentration (IC50) against Human ACC2 fell in the range of 2 to 10 nM; on Fungal ACC2 it was 0.7 to 2 nM.
For the compound `COc1ccc(F)cc1[C@H](Cn1c(=O)n(C2CCCN(C)C2=O)c(=O)c2c(C)c(-n3nccn3)sc21)OCCO` (stereo partly drawn) [Compound I-18, 1-((R)-2-(5-fluoro-2-methoxyphenyl)-2-(2-hydroxy-ethoxy)ethyl)-5-methyl-3-(1-methyl-2-oxopiperidin-3-yl)-6-(2H-1,2,3-triazol-2-yl)thieno[2,3-d]pyrimidine-2,4(1H,3H)-dione], the minimal inhibitory concentration (MIC) (in the assay with C. krusei ATCC 6258; in assay [1]; in the assay on C. albicans ATCC 90028) was 2.1 to 4 µg/mL (≈ 3.67 to 6.99 µM) in each case. In addition, the IC50 against Human ACC2 was 10 to 100 nM; on Fungal ACC2, 2 to 10 nM.
Regarding `COCCO[C@@H](Cn1c(=O)n([C@@]2(C)CCCNC2=O)c(=O)c2c(C)c(-n3nccn3)sc21)c1cc(F)ccc1OC` [Compound I-125, 1-((R)-2-(5-fluoro-2-methoxyphenyl)-2-(2-methoxy-ethoxy)ethyl)-5-methyl-3-((S)-3-methyl-2-oxopiperidin-3-yl)-6-(2H-1,2,3-triazol-2-yl)thieno[2,3-d]pyrimidine-2,4(1H,3H)-dione], the MIC (with C. krusei ATCC 6258; in assay [1]; with C. albicans ATCC 90028) was 2.1 to 4 µg/mL (≈ 3.58 to 6.82 µM) throughout. The figures for the IC50 on Human ACC2 and on Fungal ACC2 were 10 to 100 nM and 2 to 10 nM, respectively.
For `COc1ccc(F)cc1[C@H](Cn1c(=O)n([C@H]2CCNC2=O)c(=O)c2c(C)c(-n3nccn3)sc21)O[C@H]1CC[C@@H](O)CC1` [Compound I-187, 1-((R)-2-(5-fluoro-2-methoxyphenyl)-2-(((1 s, 4S)-4-hydroxycyclohexyl)oxy)ethyl)-5-methyl-3-((S)-2-oxopyrrolidin-3-yl)-6-(2H-1,2,3-triazol-2-yl)thieno[2,3-d]pyrimidine-2,4(1H,3H)-dione], the MIC (in the assay on C. krusei ATCC 6258; in assay [1]; in the assay on C. albicans ATCC 90028) was 2.1 to 4 µg/mL (≈ 3.51 to 6.68 µM) each time. Besides, the IC50 is 2 to 10 nM on Human ACC2 and 0.7 to 2 nM at Fungal ACC2.
As for `COCCO[C@@H](Cn1c(=O)n(C2CCN(C)C2=O)c(=O)c2c(C)c(-n3nccn3)sc21)c1cc(F)ccc1OC` (stereo partly drawn) [Compound I-2, 1-((R)-2-(5-fluoro-2-methoxyphenyl)-2-(2-methoxy-ethoxy)ethyl)-5-methyl-3-(1-methyl-2-oxopyrrolidin-3-yl)-6-(2H-1,2,3-triazol-2-yl)thieno[2,3-d]pyrimidine-2,4(1H,3H)-dione], the minimum inhibitory concentration (MIC) (in the assay on C. krusei ATCC 6258; in assay [1]; in the assay on C. albicans ATCC 90028) was 2.1 to 4 µg/mL (≈ 3.67 to 6.99 µM) in each case. The IC50 lay within 10 to 100 nM against Human ACC2 and 2 to 10 nM on Fungal ACC2.
Consider `COCCO[C@@H](Cn1c(=O)n([C@@]2(C)CCC(=O)NC2)c(=O)c2c(C)c(-n3nccn3)sc21)c1cc(F)ccc1OC` [Compound I-134, 1-((R)-2-(5-fluoro-2-methoxyphenyl)-2-(2-methoxy-ethoxy)ethyl)-5-methyl-3-((S)-3-methyl-6-oxopiperidin-3-yl)-6-(2H-1,2,3-triazol-2-yl)thieno[2,3-d]pyrimidine-2,4(1H,3H)-dione], for which the MIC (with C. krusei ATCC 6258; in assay [1]; in the assay on C. albicans ATCC 90028) was 2.1 to 4 µg/mL (≈ 3.58 to 6.82 µM) each time. Further, the IC50 lay within 100 to 1000 nM against Human ACC2 and 2 to 10 nM on Fungal ACC2.

One may read the MIC as the lowest concentration that inhibits growth of the organism. A word on the IC50: it is the concentration that inhibits the measured activity by half.
